Laboratory results reported in US9969742B2, “Imidazotriazinone compounds” (Ironwood Pharmaceuticals, Inc., priority 2012, dated 2018).
Read-outs that look alike come from different tables or passages of the source.

Experiments:
Assay type in all cases: biochemical
PDE1B = biological target: T1, PDE1B (Homo sapiens, UniProt Q01064); assay: Phosphodiesterase enzyme screening assay, PDE1B; conditions: Table 1; ratio of IC50 values; value greater than 1 indicates greater selectivity for PDE9A2
T1 construct: purchased Reaction Biology Corporation, Malvern, Pa
Text: (§1) Compounds of the invention were screened against PDE1A, PDE1B, PDE2A, PDE3A, PDE3B, PDE4A1A, PDE4B1, PDE4D3, PDE5A1, PDE6C, PDE7A, PDE8A1, PDE9A2, PDE10A2 AND PDE11A isoforms of the phosphodiesterase enzyme to determine activity and overall selectivity through comparative analysis. […] Where 8-methoxy-IBMX and Zaprinast were used as reference inhibitors.
(§2) The phosphodiesterase enzyme isoforms were obtained from a commercial retailer (Reaction Biology Corporation, Malvern, Pa.) for use in the instant screening assay.
(§3) The analysis was completed using the Caliper LabChip 3000 and a 12-sipper LabChip. LabChip assays are separations-based, meaning that the product and substrate are electrophoretically separated, thereby minimizing interferences and yielding the highest data quality available on any screening platform. […] High Z′ values, few false positives, few false negatives and analytical quality reproducibility are the reasons cited for the increasing reliance on the LabChip assays.
(§4) The off-chip incubation mobility-shift phosphodiesterase assay uses a microfluidic chip to measure the conversion of a fluorescent cyclic AMP substrate to a 5′-AMP product, or a cyclic GMP substrate to a 5′-GMP product. The reaction mixture, from a microtiter plate well, is introduced through a capillary sipper onto the chip, where the fluorescent substrate and product are separated by electrophoresis and detected via laser-induced fluorescence. […] The precision of microfluidics allows researchers to detect subtle interactions between drug candidates and therapeutic targets.
(§5) Reactions were carried out in 100 mM HEPES (pH 7.5), 5 mM MgCl2, 1 mM DTT, 0.003% Brij, 4.0 μM cGMP substrate. The reaction was started by addition of cGMP or cAMP and incubated for 1 hour at R.T. The reaction was terminated by the addition of stop buffer containing 100 mM HEPES (pH 7.5), 15 mM EDTA, 0.015% Brij-35, 5% DMSO. Cyclic AMP/GMP substrate and 5′-AMP/5′-GMP product were separated by charge using electrophoretic mobility shift. Product formed was compared to control wells to determine inhibition or enhancement of enzyme activity.
(§6) Data points were averages of quadruplicate wells and error bars represented the SEM for each point.

PDE1A = biological target: T2, PDE1A (Homo sapiens, UniProt P54750); assay: Phosphodiesterase enzyme screening assay, PDE1A; conditions: Table 1; ratio of IC50 values; value greater than 1 indicates greater selectivity for PDE9A2
T2 construct: purchased Reaction Biology Corporation, Malvern, Pa
Text: as §1, §2, §3, §4, §5, §6

PDE9A2 = biological target: T3, PDE9A2 (Homo sapiens, UniProt O76083); assay: Phosphodiesterase enzyme screening assay, PDE9A2; conditions: read-out: Band (PDE9A2 IC50)
T3 construct: purchased Reaction Biology Corporation, Malvern, Pa
How it was run: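 Enzyme activity is measured as conversion of fluorescent cGMP (4.0 μM) to 5′-GMP after 1 h at R.T. in pH 7.5 HEPES/MgCl2/DTT buffer. Product is separated from substrate by microfluidic mobility shift, and inhibition is derived by comparison with control wells.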

[1] = Table 1, 10 concentrations, 4.0 μM cGMP substrate, 1 hour at R.T.

T1 sequence (Q01064 whole entry): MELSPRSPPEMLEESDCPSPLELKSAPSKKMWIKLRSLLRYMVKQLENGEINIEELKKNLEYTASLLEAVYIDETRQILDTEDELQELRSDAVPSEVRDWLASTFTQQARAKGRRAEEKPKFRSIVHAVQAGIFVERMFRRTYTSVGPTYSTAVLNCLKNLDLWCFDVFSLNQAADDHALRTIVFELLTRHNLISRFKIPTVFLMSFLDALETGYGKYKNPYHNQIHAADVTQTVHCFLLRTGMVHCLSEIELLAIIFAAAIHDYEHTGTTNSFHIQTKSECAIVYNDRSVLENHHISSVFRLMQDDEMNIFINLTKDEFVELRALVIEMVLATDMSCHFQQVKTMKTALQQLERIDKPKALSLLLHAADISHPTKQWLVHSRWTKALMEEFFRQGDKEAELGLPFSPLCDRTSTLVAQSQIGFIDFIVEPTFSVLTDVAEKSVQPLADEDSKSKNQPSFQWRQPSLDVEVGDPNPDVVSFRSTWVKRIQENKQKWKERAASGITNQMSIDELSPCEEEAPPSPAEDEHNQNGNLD
T2 sequence (P54750 whole entry): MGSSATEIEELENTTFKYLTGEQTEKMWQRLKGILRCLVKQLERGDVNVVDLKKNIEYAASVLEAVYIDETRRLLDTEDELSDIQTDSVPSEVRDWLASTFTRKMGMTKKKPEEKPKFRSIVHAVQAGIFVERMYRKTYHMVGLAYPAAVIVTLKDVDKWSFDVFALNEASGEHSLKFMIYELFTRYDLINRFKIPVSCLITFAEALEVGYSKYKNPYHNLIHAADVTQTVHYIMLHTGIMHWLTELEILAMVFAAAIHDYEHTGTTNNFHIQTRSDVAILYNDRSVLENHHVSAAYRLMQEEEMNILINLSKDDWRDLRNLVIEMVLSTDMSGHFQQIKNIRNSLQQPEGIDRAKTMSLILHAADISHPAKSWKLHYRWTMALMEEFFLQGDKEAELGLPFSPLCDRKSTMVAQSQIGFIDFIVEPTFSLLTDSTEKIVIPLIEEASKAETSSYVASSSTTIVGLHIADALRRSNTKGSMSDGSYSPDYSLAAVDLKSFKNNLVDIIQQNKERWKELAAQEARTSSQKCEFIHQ
T3 sequence (O76083 1-533 isoform O76083-2): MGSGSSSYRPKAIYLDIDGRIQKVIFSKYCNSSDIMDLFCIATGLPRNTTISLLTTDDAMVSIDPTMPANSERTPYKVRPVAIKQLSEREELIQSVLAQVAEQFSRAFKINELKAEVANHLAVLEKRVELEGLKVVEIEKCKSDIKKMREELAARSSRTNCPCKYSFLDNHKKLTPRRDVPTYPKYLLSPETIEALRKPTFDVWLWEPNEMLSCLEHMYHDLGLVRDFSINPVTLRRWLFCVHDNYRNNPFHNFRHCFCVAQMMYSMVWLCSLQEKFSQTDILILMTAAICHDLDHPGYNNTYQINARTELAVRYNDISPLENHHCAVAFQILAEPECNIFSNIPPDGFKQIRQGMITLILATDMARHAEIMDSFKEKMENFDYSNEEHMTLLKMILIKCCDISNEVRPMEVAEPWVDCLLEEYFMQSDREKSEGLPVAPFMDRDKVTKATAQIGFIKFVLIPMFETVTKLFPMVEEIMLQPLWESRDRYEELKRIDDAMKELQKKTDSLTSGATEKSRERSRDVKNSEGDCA

| Compound | PDE1B selectivity (versus PDE9A2) (PDE1B) | PDE1A selectivity (versus PDE9A2) (PDE1A) | IC50 (PDE9A2) [nM] | IC50 (PDE9A2; [1]) [nM] |
| --- | --- | --- | --- | --- |
| CC1CN(C(=O)c2ccc(F)cc2)CC1c1nn2c(C3CCOCC3)ncc2c(=O)[nH]1 (single isomer, unassigned; (-)) [(−)-2-((3,4-trans)-1-(4-fluorobenzoyl)-4-methylpyrrolidin-3-] [(−)-2-((3,4-trans)-1-(4-fluorobenzoyl)-4-methylpyrrolidin-3-yl)-7-(tetrahydro-2H-pyran-4-yl)imidazo[5,1-f][1,2,4]triazin-4(3H)-one] | 23 | 12 |  |  |
| CC1CN(Cc2ncc3ccccc3n2)CC1c1nn2c(C3CCOCC3)ncc2c(=O)[nH]1 (single isomer, unassigned; (+)) [(+)-2-((3,4-trans)-4-methyl-1-(quinazolin-2-ylmethyl)pyrroli] [(+)-2-((3,4-trans)-4-methyl-1-(quinazolin-2-ylmethyl)pyrrolidin-3-yl)-7-(tetrahydro-2H-pyran-4-yl)imidazo[5,1-f][1,2,4]triazin-4(3H)-one] | 1360 | 973 |  |  |
| CC1CN(Cc2ncccn2)CC1c1nn2c(C3CCOCC3)ncc2c(=O)[nH]1 (single isomer, unassigned; (+)) [(+)-2-((3,4-trans)-4-methyl-1-(pyrimidin-2-ylmethyl)pyrrolid] [(+)-2-((3,4-trans)-4-methyl-1-(pyrimidin-2-ylmethyl)pyrrolidin-3-yl)-7-(tetrahydro-2H-pyran-4-yl)imidazo[5,1-f][1,2,4]triazin-4(3H)-one] | 386 | 393 |  |  |
| CC1CN(Cc2ncccn2)CC1c1nn2c(C3CCOC3)ncc2c(=O)[nH]1 (single isomer, unassigned; (+)) [(+)-2-((3,4-trans)-4-methyl-1-(pyrimidin-2-ylmethyl)pyrrolid] [(+)-2-((3,4-trans)-4-methyl-1-(pyrimidin-2-ylmethyl)pyrrolidin-3-yl)-7-(tetrahydrofuran-3-yl)imidazo[5,1-f][1,2,4]triazin-4(3H)-one] | 58 | 28 |  |  |
| CC1CN(C(=O)c2ccccc2)CC1c1nn2c(C3CCOCC3)ncc2c(=O)[nH]1 (single isomer, unassigned; (-)) [(−)-2-((3,4-trans)-1-benzoyl-4-methylpyrrolidin-3-yl)-7-(tet] [(−)-2-((3,4-trans)-1-benzoyl-4-methylpyrrolidin-3-yl)-7-(tetrahydro-2H-pyran-4-yl)imidazo[5,1-f][1,2,4]triazin-4(3H)-one] | 32 | 26 |  |  |
| Cc1ccc(F)cc1-c1ncc2c(=O)[nH]c(C3CN(Cc4ncccn4)CC3C)nn12 (single isomer, unassigned; (+)) [(+)-7-(5-fluoro-2-methylphenyl)-2-((3,4-trans)-4-methyl-1-(p] [(+)-7-(5-fluoro-2-methylphenyl)-2-((3,4-trans)-4-methyl-1-(pyrimidin-2-ylmethyl)pyrrolidin-3-yl)imidazo[1,5-f][1,2,4]triazin-4(3H)-one] | 102 | 158 |  |  |
| CC(=O)N1CCC(c2ncc3c(=O)[nH]c(C4CN(Cc5ccccc5)CC4C)nn23)CC1 (single isomer, unassigned; (+)) [(+)-7-(1-acetylpiperidin-4-yl)-2-((3,4-trans)-1-benzyl-4-methylpyrrolidin-3-yl)imidazo[5,1-f][1,2,4]triazin-4(3H)-one] | 232 | 177 |  |  |
| CC1CN(Cc2cnccn2)CC1c1nn2c(C3CCOCC3)ncc2c(=O)[nH]1 (single isomer, unassigned; (+)) [(+)-2-((3,4-trans)-4-methyl-1-(pyrazin-2-ylmethyl)pyrrolidin-3-yl)-7-(tetrahydro-2H-pyran-4-yl)imidazo[5,1-f][1,2,4]triazin-4(3H)-one] | 178 | 202 |  |  |
| CC1CN(C(C)c2ccccc2)CC1c1nn2c(C3CCOCC3)ncc2c(=O)[nH]1 (single isomer, unassigned; (+)) [(+)-2-((3,4-trans)-4-methyl-1-((S)-1-phenylethyl)pyrrolidin-] | 99 | 51 |  |  |
| Cc1cc(F)ccc1-c1ncc2c(=O)[nH]c(C3CN(Cc4ccccc4)CC3C)nn12 (single isomer, unassigned; (+)) [(+)-2-((3,4-trans)-1-benzyl-4-methylpyrrolidin-3-yl)-7-(4-fluoro-2-methylphenyl)imidazo[5,1-f][1,2,4]triazin-4(3H)-one] | 225 | 257 |  |  |
| CC1CN(Cc2ccccn2)CC1c1nn2c(-c3ccc(F)cc3)ncc2c(=O)[nH]1 (single isomer, unassigned; (+)) [(+)-7-(4-fluorophenyl)-2-((3,4-trans)-4-methyl-1-(pyridin-2-ylmethyl)pyrrolidin-3-yl)imidazo[5,1-f][1,2,4]triazin-4(3H)-one] |  |  | 1000 to 10000 |  |
| CC1CN(C(=O)c2ccccc2)CC1c1nn2c(C3CCOCC3)ncc2c(=O)[nH]1 (single isomer, unassigned; (-)) [(−)-2-((3,4-trans)-1-benzoyl-4-methylpyrrolidin-3-yl)-7-(tetrahydro-2H-pyran-4-yl)imidazo[5,1-f][1,2,4]triazin-4(3H)-one] |  |  |  | < 1000 |
| CC1CN(Cc2nc3ccccn3n2)CC1c1nn2c(-c3ccccc3)ncc2c(=O)[nH]1 (single isomer, unassigned; (+)) [(+)-2-((3,4-trans)-1-([1,2,4]triazolo[1,5-a]pyridin-2-ylmethyl)-4-methylpyrrolidin-3-yl)-7-phenylimidazo[5,1-f][1,2,4]triazin-4(3H)-one] |  |  | < 1000 |  |
| CC1CN(S(=O)(=O)c2ccccc2)CC1c1nn2c(C3CCOCC3)ncc2c(=O)[nH]1 (single isomer, unassigned; (-)) [(−)-2-((3,4-trans)-4-methyl-1-(phenylsulfonyl)pyrrolidin-3-yl)-7-(tetrahydro-2H-pyran-4-yl)imidazo[5,1-f][1,2,4]triazin-4(3H)-one] |  |  |  | 1000 to 10000 |
| CC1CN(Cc2ccccc2)CC1c1nn2c(C3CCN(C)CC3)ncc2c(=O)[nH]1 (single isomer, unassigned) [2-((3,4-trans)-1-benzyl-4-methylpyrrolidin-3-yl)-7-(1-methylpiperidin-4-yl)imidazo[5,1-f][1,2,4]triazin-4(3H)-one] |  |  |  | 1000 to 10000 |
| CCS(=O)(=O)N1CC(C)C(c2nn3c(C4CCOCC4)ncc3c(=O)[nH]2)C1 (single isomer, unassigned; (-)) [(−)-2-((3,4-trans)-1-(ethylsulfonyl)-4-methylpyrrolidin-3-yl)-7-(tetrahydro-2H-pyran-4-yl)imidazo[5,1-f][1,2,4]triazin-4(3H)-one] |  |  |  | < 1000 |
| CC1CN(S(=O)(=O)c2ccccc2F)CC1c1nn2c(C3CCOCC3)ncc2c(=O)[nH]1 (single isomer, unassigned; (+)) [(+)-2-((3,4-trans)-1-((2-fluorophenyl)sulfonyl)-4-methylpyrrolidin-3-yl)-7-(tetrahydro-2H-pyran-4-yl)imidazo[5,1-f][1,2,4]triazin-4(3H)-one] |  |  |  | < 1000 |
| CC1CN(C(=O)c2ccccn2)CC1c1nn2c(C3CCOCC3)ncc2c(=O)[nH]1 (single isomer, unassigned; (-)) [(−)-2-((3,4-trans)-4-methyl-1-picolinoylpyrrolidin-3-yl)-7-(tetrahydro-2H-pyran-4-yl)imidazo[5,1-f][1,2,4]triazin-4(3H)-one] |  |  |  | < 1000 |
| CC1CN(Cc2ccc3nccn3n2)CC1c1nn2c(C3CCOCC3)ncc2c(=O)[nH]1 (single isomer, unassigned; (-)) [(−)-2-((3,4-trans)-1-(imidazo[1,2-b]pyridazin-6-ylmethyl)-4-methylpyrrolidin-3-yl)-7-(tetrahydro-2H-pyran-4-yl)imidazo[5,1-f][1,2,4]triazin-4(3H)-one] |  |  |  | < 1000 |
| CC1CN(S(=O)(=O)c2ccc(F)cc2)CC1c1nn2c(C3CCOCC3)ncc2c(=O)[nH]1 (single isomer, unassigned; (+)) [(+)-2-((3,4-trans)-1-((4-fluorophenyl)sulfonyl)-4-methylpyrrolidin-3-yl)-7-(tetrahydro-2H-pyran-4-yl)imidazo[5,1-f][1,2,4]triazin-4(3H)-one] |  |  |  | < 1000 |
